Target: T1, Solute carrier family 22 member 12 (Homo sapiens, UniProt Q96S37)
T1 sequence (Q96S37 whole entry): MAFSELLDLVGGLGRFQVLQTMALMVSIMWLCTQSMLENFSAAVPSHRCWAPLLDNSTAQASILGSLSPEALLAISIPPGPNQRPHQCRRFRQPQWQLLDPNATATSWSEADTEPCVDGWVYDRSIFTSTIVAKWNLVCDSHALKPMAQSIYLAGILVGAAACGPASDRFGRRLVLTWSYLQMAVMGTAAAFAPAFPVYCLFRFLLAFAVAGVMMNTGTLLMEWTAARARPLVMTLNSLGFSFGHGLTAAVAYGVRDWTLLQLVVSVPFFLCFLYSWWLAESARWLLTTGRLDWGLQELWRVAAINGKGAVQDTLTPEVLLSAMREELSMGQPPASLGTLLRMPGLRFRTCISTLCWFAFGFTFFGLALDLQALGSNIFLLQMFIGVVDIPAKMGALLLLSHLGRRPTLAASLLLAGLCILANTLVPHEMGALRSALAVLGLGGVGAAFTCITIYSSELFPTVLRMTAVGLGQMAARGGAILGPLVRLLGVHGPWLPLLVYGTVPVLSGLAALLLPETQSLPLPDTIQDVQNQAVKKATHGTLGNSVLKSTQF
Assay: hURAT1 Inhibition Assay: Human embryonic kidney cells (HEK293) was incubated in DMEM tissue culture medium, at 37° C., under 5% CO2 and 95% air atmosphere. TransIT-293 transfection agent (MIRUS BIO, Cat. No. MIR2706) and model URAT1 were used to construct transfected HEK293 cells. Transfected HEK293/hURAT1 cells were used to the test for 14C-uric acid transport activity. HEK293/hURAT1 cells were seeded in a 96-well plate (BD, Cat. No. 356461) fully coating with poly-D-lysine at a density of 6×10^4 cells per well. Cells were incubated at 37° C. for at least 12 hrs in the calorstat, and then washed with pre-heated washing buffer (125 mM sodium gluconate, 10 mM HEPES pH=7.4) at an amount of 200 μL per well to wash out the culture medium. The uric acid [8-14C] (ARC, Cat. No. ARC0513-250UCI) containing or not containing the compound was added to 50 μL HBSS buffer which was free of chloric ion each well (HBSS buffer: 125 mM sodium gluconate, 4.8 mM potassium gluconate, 1.3 mM calcium gluconate, 1.2 mM potassium dihydrogen phosphate, 1.2 mM magnesium sulfate, 5.6 mM glucose, 25 mM HEPES pH=7.4) to make the specific concentration of the uric acid 1 μCi per well. The incubating solution was removed after 10 mins incubation, followed by adding 100 μL cold washing buffer, after washing with this buffer for 3 times, the buffer was completely removed from the well.

IC50	SMILES
8 nM	CC(C)(Sc1ccc2cncc(-c3ccc(C#N)c4ccccc34)c2c1)C(=O)O
1860 nM	C[C@@H](CC(=O)O)c1cc2cncc(-c3ccc(C#N)cc3)c2s1
580 nM	C[C@H](CC(=O)O)c1cc2cncc(-c3ccc(C#N)c4ccccc34)c2s1
38 nM	C[C@H](CC(=O)O)c1cc2cncc(-c3ccc(C#N)cc3)c2s1
37 nM	C[C@@H](CC(=O)O)c1cc2c(-c3ccc(C#N)c4ccccc34)cncc2s1
10 nM	C[C@@H](CC(=O)O)c1cc2cncc(-c3ccc(C#N)c4ccccc34)c2s1
11 nM	C[C@H](CC(=O)O)c1cc2c(-c3ccc(C#N)c4ccccc34)cncc2s1

SMILES	IC50
C[C@H](Oc1ccc2cncc(-c3ccc(C#N)cc3)c2c1)C(=O)O	2690 nM
C[C@@H](Oc1ccc2cncc(-c3ccc(C#N)cc3)c2c1)C(=O)O	5520 nM
